Measurements: patent publication US6005007A, “Retinoids, methods for their production and use” (priority 1997, dated 1999)
Like-named read-outs stand apart in the source and are kept apart here.

Tests used:
ME 180 = assay: Incorporation of 3H-thymidine, ME 180; assay type: cell-based; settings: Homo sapiens
AML-193 = assay: Incorporation of 3H-thymidine, AML-193; settings: Homo sapiens, read-out: TdR IC50 AML-193 (nM)
RARα [1] = target: T1, RARα (Homo sapiens, UniProt P10276); assay: Co-transfection assay, RARα agonist activity; assay type: cell-based; set-up: expressed in transfected cells; host or cells: CV-1 (African green monkey kidney fibroblasts); settings: CV-1 cells, luciferase reporter, read-out: RARα Pot
T1 sequence (P10276 1-462): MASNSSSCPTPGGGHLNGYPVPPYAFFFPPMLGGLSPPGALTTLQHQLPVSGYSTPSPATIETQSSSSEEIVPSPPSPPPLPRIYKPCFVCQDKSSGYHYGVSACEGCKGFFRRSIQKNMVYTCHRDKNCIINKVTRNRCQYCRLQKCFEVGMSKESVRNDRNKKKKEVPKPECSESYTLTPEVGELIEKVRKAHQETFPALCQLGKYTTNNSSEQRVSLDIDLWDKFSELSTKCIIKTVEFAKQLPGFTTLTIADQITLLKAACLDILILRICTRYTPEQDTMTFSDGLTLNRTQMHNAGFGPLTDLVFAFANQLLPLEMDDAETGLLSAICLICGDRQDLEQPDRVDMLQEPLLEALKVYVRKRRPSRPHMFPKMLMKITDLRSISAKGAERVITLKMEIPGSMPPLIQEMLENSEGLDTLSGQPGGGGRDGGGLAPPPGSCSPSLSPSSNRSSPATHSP

RARγ [2] = target: T2, RARγ (Homo sapiens, UniProt P13631); assay: Co-transfection assay, RARγ agonist activity; assay type: cell-based; set-up: expressed in transfected cells; host or cells: CV-1 (African green monkey kidney fibroblasts); settings: CV-1 cells, luciferase reporter, read-out: RARγ Pot
T2 sequence (P13631 1-454): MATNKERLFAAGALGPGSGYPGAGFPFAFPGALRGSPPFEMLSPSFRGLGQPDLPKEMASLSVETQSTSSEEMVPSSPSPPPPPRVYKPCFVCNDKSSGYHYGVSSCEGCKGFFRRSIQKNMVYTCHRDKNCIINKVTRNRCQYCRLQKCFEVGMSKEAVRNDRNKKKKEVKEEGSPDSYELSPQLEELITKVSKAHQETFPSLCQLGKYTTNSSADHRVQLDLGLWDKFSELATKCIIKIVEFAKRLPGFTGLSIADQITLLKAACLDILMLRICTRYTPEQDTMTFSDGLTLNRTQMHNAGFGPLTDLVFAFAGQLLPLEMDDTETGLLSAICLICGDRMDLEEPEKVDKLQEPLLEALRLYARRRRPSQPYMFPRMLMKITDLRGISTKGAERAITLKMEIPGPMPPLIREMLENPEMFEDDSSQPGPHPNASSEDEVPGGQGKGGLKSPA

RXRγ = target: T3, RXRγ (Mus musculus, UniProt P28705); assay: Receptor binding, RXRγ; settings: tritiated retinoid competition
T3 construct: expressed in transfected cells; host or cells: CV-1 (African green monkey kidney fibroblasts)
T3 sequence (P28705 1-463): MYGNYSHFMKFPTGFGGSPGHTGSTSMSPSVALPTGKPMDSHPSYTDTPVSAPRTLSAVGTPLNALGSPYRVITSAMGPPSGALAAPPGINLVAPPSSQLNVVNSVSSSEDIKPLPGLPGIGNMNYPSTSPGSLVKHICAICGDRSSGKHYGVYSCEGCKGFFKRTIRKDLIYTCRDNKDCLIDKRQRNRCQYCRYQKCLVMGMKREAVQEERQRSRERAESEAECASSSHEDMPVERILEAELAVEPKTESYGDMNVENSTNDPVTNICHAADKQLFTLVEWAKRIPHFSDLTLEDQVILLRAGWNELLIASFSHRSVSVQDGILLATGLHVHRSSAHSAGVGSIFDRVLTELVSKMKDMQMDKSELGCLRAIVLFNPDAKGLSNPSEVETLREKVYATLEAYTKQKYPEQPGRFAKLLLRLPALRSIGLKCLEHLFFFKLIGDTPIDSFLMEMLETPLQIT

RARα [3] = target: T1, RARα; assay: Receptor binding, RARα; settings: tritiated retinoid competition
RARβ [4] = target: T4, RARβ (Homo sapiens, UniProt P10826); assay: Co-transfection assay, RARβ agonist activity; assay type: cell-based; set-up: expressed in transfected cells; host or cells: CV-1 (African green monkey kidney fibroblasts); settings: CV-1 cells, luciferase reporter, read-out: RARβ Pot
T4 sequence (P10826 1-448 isoform P10826-2): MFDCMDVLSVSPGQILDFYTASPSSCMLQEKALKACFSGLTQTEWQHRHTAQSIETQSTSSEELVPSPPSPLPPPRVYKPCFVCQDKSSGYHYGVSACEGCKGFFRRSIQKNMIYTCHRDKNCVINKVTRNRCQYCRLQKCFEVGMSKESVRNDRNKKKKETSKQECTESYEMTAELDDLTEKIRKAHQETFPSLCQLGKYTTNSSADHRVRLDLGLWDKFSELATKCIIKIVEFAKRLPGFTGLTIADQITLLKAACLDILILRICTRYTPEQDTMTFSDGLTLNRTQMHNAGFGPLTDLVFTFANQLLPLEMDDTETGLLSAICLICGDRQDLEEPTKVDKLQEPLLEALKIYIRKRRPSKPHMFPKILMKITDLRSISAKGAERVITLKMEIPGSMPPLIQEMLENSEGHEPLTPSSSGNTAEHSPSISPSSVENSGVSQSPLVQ

RARβ [5] = target: T4, RARβ; assay: Receptor binding, RARβ; settings: tritiated retinoid competition
RARγ [6] = target: T2, RARγ; assay: Receptor binding, RARγ; settings: tritiated retinoid competition
RPMI 8226 = assay: Incorporation of 3H-thymidine, RPMI 8226; assay type: cell-based; settings: Homo sapiens, 96 hours incubation, then 6 hours 3H-thymidine, read-out: TdR IC50 RPMI 8226

| Kd (RARα [3]) [nM] | Kd (RARβ [5]) [nM] | Kd (RARγ [6]) [nM] | Compound | IC50 (AML-193) [nM] | other results |
| --- | --- | --- | --- | --- | --- |
|  |  |  | CC1=C(/C=C/C(C)=C\C=C\C(C)=C\C(=O)O)C(C)(C)CCC1 [Compound 9-cis, 9-cis retinoic acid] | 113 | IC50 (ME 180; ME-180, read-out: TdR IC50 ME 180 (nM)): 180 nM |
| > 5000 | > 5000 | > 5000 | CC(/C=C/CC1(c2cc3c(cc2C)C(C)(C)CCC3(C)C)CC1)=C\C(=O)O [Compound 102, (2E, 4E)-6-[(3,5,5,8,8-Pentamethyl-5,6,7,8-tetrahydronaphthalen-2-yl)cyclopropan-1-yl]-3-methyl hexadienoic acid] |  | EC50 (RARα [1]): > 10000 nM; EC50 (RARγ [2]): > 10000 nM; Kd (RXRγ): 153 nM; EC50 (RARβ [4]): > 10000 nM |
| > 5000 | > 5000 | > 5000 | CC(/C=C/CC1(c2cc(C(C)(C)C)cc(C(C)(C)C)c2)CC1)=C\C(=O)O [Compound 105, (2E, 4E)-6-[(3,5-di-t-butylphenyl)cyclopropan-1-yl]-3-methyl hexadienoic acid] |  |  |
|  |  |  | C/C(=C\c1ccc(C(=O)O)cc1)c1ccc2c(c1)C(C)(C)CCC2(C)C [TTNPB] | 0.1 | IC50 (RPMI 8226): 0.2 nM; IC50 (ME 180; ME-180, 96 hours incubation, then 6 hours 3H-thymidine, read-out: TdR IC50 ME 180): 0.4 nM |
